{
  "source": "paper PMC11936910",
  "about": "“Population pharmacokinetics of polymyxin B in critically ill patients with carbapenem-resistant organisms infections: insights from steady-state trough and peak plasma concentration” (Frontiers in Pharmacology, 2025)",
  "key": {"[1]": {"conditions": "cited from earlier work", "excerpt": "The association between PMB pharmacokinetics and CrCL is still debated."}, "[2]": {"experiment": "Population pharmacokinetic (PopPK) model of PMB, NONMEM, one-compartment", "type": "in vivo, critically ill patients", "excerpt": "The PopPK model was developed using nonlinear mixed-effects modeling software: NONMEM (version 7.5.1, ICON plc, United States), Pirana (version 23.1.2, Certara L.P., United States), and PsN (version 5.3.0, https://uupharmacometrics.github.io/PsN/), with the first-order conditional estimation method including interaction (FOCE-I). The base model was selected based on goodness-of-fit (GOF) diagnostic plots, relative standard error (RSE) of parameters, and the objective function value (OFV). Spearman correlation was used to evaluate the relationships between covariates and individual empirical Bayesian estimates (EBEs) of PK parameters before covariate selection. A decrease in OFV >3.84 (P < 0.05, χ^2, df = 1) for forward addition and an increase >6.63 (P < 0.01, χ^2, df = 1) for backward elimination were the criteria for covariate inclusion. GOF plots were used to assess the model. To assess the stability of the final model and the precision of the PK parameters, a bootstrap method with 1,000 resampling iterations was performed. The final model was then subjected to 1,000 simulations for visual predictive checks (VPC) to evaluate the model’s predictive ability and accuracy. The accuracy and predictive performance of the model were further assessed using normalized prediction distribution errors (NPDE) plots. Statistical validation of the model was conducted using the t-test, Fisher’s test, Shapiro-Wilk test, and the Global test.\nThe patients were divided into a modeling group and a validation group based on the chronological order of enrollment and in accordance with the inclusion and exclusion criteria. External validation of the final model was performed using the validation group data. The mean prediction error (MPE), mean absolute prediction error (MAPE) (Equations 1, 2), F20 (20% of the absolute value of the prediction error), and F30 were calculated by comparing the predicted values with the observed values. Model performance was considered acceptable if MPE% ≤ ±20%, MAPE% ≤ 30%, F20 ≥ 35%, and F30 ≥ 50% ([Mao et al., 2018]). MPE%=1/N∑i=1Npredi−obsi/obsi×100 (1) MAPE%=1/N∑i=1Npredi−obsi/obsi×100 (2) predi denotes the i-th predicted value, and obsi its corresponding observed value.\nA one-compartment model with first-order elimination best fit the population data of PMB in critically ill patients. Inter-individual variability was described using an exponential random effects model, while residual variability was described using both proportional and additive error models."}, "[3]": {"test_system": "CRO strains", "experiment": "MICs of PMB against CRO strains", "type": "cell-based, carbapenem-resistant organisms"}, "[4]": {"conditions": "cited from earlier work", "excerpt": "In contrast, the lower CL observed in previous studies by Li et al. (1.18 L·h^-1) and Yu et al. (1.59 L·h^-1) may reflect differences in renal function and patient characteristics. Our study reported a value of 18 L, which ...", "remark": "listed apart in the source"}, "[5]": {"experiment": "Steady-state trough and peak plasma concentrations of PMB (UPLC-MS/MS) and AUCss,24h estimation", "type": "in vivo, critically ill patients", "conditions": "for Cmax / AUC(0-t): human, plasma, iv; for Cmax: sample immediately after infusion, UPLC-MS/MS, read-out: Cpeak, ss; for AUC(0-t): two-point method (Ctrough,ss and Cpeak,ss, first-order elimination equation), mean ± SD, SD, read-out: Equation-based AUCss,24h", "protocol": "A single-center prospective study was conducted in the intensive care unit (ICU) of the First Affiliated Hospital of Army Medical University from August 2021 to July 2024. Inclusion criteria: (1) patients aged ≥18 years; (2) patients receiving intravenous PMB for CRO infections confirmed by pathogen testing; (3) patients receiving at least four consecutive doses of intravenous PMB, or a loading dose followed by at least three consecutive doses. Exclusion criteria: (1) patients with missing clinical data; (2) patients hospitalized for fewer than 7 days; (3) patients receiving any form of renal replacement therapy during PMB treatment; (4) pregnant women. The research protocol was approved by the Ethics Committee of our hospital (No. (A) KY2021064).\nAfter at least 48 h of treatment, two blood samples were collected: one immediately before the infusion and the other immediately after. The exact times of blood sampling and infusion were recorded for each patient. Plasma was separated by low-temperature, low-speed centrifugation and stored at −70°C until analysis.\nPMB concentrations were analyzed using a validated ultra-performance liquid chromatography-tandem mass spectrometry (UPLC-MS/MS) method. Briefly, using polymyxin E2 as the internal standard, the assay was linear over 0.2–20.0 mg·L^-1 and 0.05–5 mg·L^-1 (r > 0.995) for PMB1 and PMB2 respectively. […] PMB concentration was calculated as follows: total concentration of PMB = [PMB1 concentration/PMB1 molecular + PMB2 concentration/PMB2 molecular]*total PMB molecular ([Liu et al., 2023]).\nData analysis was performed SPSS (version 26.0, IBM, United States) and GraphPad Prism (version 8.3.0, CA, United States). Variables with a normal distribution were expressed as mean ± standard deviation (SD), while non-normally distributed variables were reported as median (interquartile range, IQR). Categorical data were presented as percentages (%). Comparisons between two groups were conducted using the Mann-Whitney U test for non-normally distributed data and the independent t-test for normally distributed data. The estimation of AUCss,24h used the two-point method was presented in Equations 3–5 ([Liu et al., 2023]), while the estimation of AUCss,24h based on the PopPK model was obtained by dividing the total 24-hour drug dose by the individual clearance. Bland-Altman analysis was performed to evaluate the consistency of AUCss,24h estimates obtained by the two methods. AUCss,24h values were categorized as “within the therapeutic window” (50–100 mg·h·L^-1), and McNemar’s test and Kappa test were applied to assess the consistency of AUCss,24h classifications. ke=lnCpeak,ss−lnCtrough,ss/τ−Infusion (3) Csoi′ =Cpeak,ss/e^−ke⋅Infusion (4) AUCss,24h=Csoi^′−Ctrough,ss/ke×n (5) Infusion time; τ: dosing interval; Csoi' is the exploratory concentration at the start of dosing based on the one-compartment linear elimination pharmacokinetic assumption; ke: elimination rate constant; n is the number of doses within 24 h."}, "[6]": {"conditions": "bootstrap median, 1,000 resampling iterations"}, "[7]": {"conditions": "CRO-infected patients, covariate TBW, ref Manchandani et al., 2018"}, "[8]": {"conditions": "CRO-infected patients, ref Kubin et al., 2018"}, "[9]": {"conditions": "Critically ill patients, covariate CrCL, ref Yu et al., 2020"}, "[10]": {"conditions": "Cystic fibrosis patients, covariate TBW, ref Crass et al., 2021"}, "[11]": {"conditions": "Kidney transplant patients, covariate CrCL, ref Li et al., 2021"}},
  "note": "Like-named read-outs stand apart in the source and are kept apart here. Bridge positions count the residues as written; N and C are the ends. Square brackets hold non-standard residues; d marks the D form. Peptide text beside a SMILES is read from it. * marks the point of attachment. X1 = CC[C@H](C)CCCCC(=O)*; Dab = NCC[C@H](N)C(=O)O",
  "data": [
    {"smiles": "CC[C@H](C)CCCCC(=O)N[C@@H](CCN)C(=O)N[C@H](C(=O)N[C@@H](CCN)C(=O)N[C@H]1CCNC(=O)[C@H]([C@@H](C)O)NC(=O)[C@H](CCN)NC(=O)[C@H](CCN)NC(=O)[C@H](CC(C)C)NC(=O)[C@@H](Cc2ccccc2)NC(=O)[C@H](CCN)NC1=O)[C@@H](C)O", "note": "[PMB, polymyxin B] (X1-[Dab]T[Dab][Dab][Dab][dF]L[Dab][Dab]T; lactam 4-C)", "values": [
      {"measurement": "Urinary recovery", "setting": "[1]; 17 patients, ref Sandri et al., 2013b", "value": "0.98% to 17.40"},
      {"measurement": "Urinary recovery rate", "setting": "[1]; four patients, ref Yu et al., 2020", "value": 23.56, "unit": "%"},
      {"measurement": "CL", "setting": "[2]; [6]", "value": 2.02, "unit": "L/h"},
      {"measurement": "V", "setting": "[2]; [6]", "value": 17.98, "unit": "L"},
      {"measurement": "V", "setting": "[2]; final model estimate, modeling group n = 80", "value": 18, "unit": "L"},
      {"measurement": "CL", "setting": "[2]; final model estimate, modeling group n = 80, 184 samples", "value": 2.03, "unit": "L/h"},
      {"measurement": "Share with MIC of PMB 16 mg·L^-1", "setting": "[3]; modeling group, 3/80", "value": 3.75, "unit": "%"},
      {"measurement": "Share with MIC of PMB 2 mg L^-1", "setting": "[3]; modeling group, 8/80", "value": 10, "unit": "%"},
      {"measurement": "Share with MIC of PMB 1 mg·L^-1", "setting": "[3]; modeling group, 11/80", "value": 13.75, "unit": "%"},
      {"measurement": "Share with MIC of PMB 2 mg·L^-1", "setting": "[3]; validation group, 2/15", "value": 13.33, "unit": "%"},
      {"measurement": "Share with MIC of PMB 1 mg·L^-1", "setting": "[3]; validation group, 4/15", "value": 26.67, "unit": "%"},
      {"measurement": "Share with MIC of PMB ≤0.5 mg·L^-1", "setting": "[3]; validation group, 9/15", "value": 60, "unit": "%"},
      {"measurement": "CL", "setting": "[4]; [7]", "value": 2.50, "unit": "L/h"},
      {"measurement": "Vd", "setting": "[4]; [7]", "value": 34.30, "unit": "L"},
      {"measurement": "CL", "setting": "[4]; [8]", "value": 2.37, "unit": "L/h"},
      {"measurement": "Vd", "setting": "[4]; [8]", "value": 34.40, "unit": "L"},
      {"measurement": "CL", "setting": "[4]; [9]", "value": 1.59, "unit": "L/h"},
      {"measurement": "Vd", "setting": "[4]; [9]", "value": 20.50, "unit": "L"},
      {"measurement": "CL", "setting": "[4]; [10]", "value": 2.09, "unit": "L/h"},
      {"measurement": "Vd", "setting": "[4]; [10]", "value": 12.70, "unit": "L"},
      {"measurement": "CL", "setting": "[4]; [11]", "value": 1.18, "unit": "L/h"},
      {"measurement": "Vd", "setting": "[4]; [11]", "value": 12.90, "unit": "L"},
      {"measurement": "AUCss,24h within the range of 50–100, share of values", "setting": "[5]; estimated by the PPK model, 55/106 values (modeling and validation group)", "value": 51.89, "unit": "%"},
      {"measurement": "AUCss,24h within the range of 50–100, share of values", "setting": "[5]; estimated using the two-point method, 49/106 values", "value": 46.23, "unit": "%"},
      {"measurement": "Cmax", "setting": "[5]; modeling set (n = 80), median (IQR)", "value": 5730, "unit": "ng/mL"},
      {"measurement": "AUC(0-t)", "setting": "[5]; modeling set", "value": "102000 ± 57900", "unit": "ng·h/mL"},
      {"measurement": "Cmax", "setting": "[5]; validation set (n = 15), median (IQR)", "value": 4340, "unit": "ng/mL"},
      {"measurement": "AUC(0-t)", "setting": "[5]; validation set", "value": "90500 ± 43400", "unit": "ng·h/mL"},
      {"measurement": "Model-based AUCss,24h", "setting": "[5]; modeling set, total 24-hour dose divided by individual clearance from PopPK model, median (IQR)", "value": "74.07 (55.81–94.07) mg·h/L"}
    ]}
  ]
}
